# Data as given in patent publication US9708314B2, “Heterocyclic amide compound” (NISSAN CHEMICAL INDUSTRIES, LTD., priority 2013, dated 2017).
# Tests used:
# Assay type in all cases: in vivo
# [1] = tested on: Echinochloa crus-galli var. crus-galli; assay: Test Example 3: herbicidal effect by application to foliage (Wagner pot, water depth 0.1-0.5 cm); conditions: Nineteenth Table, application herbicide amount 320 g/ha
# Summary of the method: (§1)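 Rice-field weeds and directly sown rice were grown 14 days in flooded alluvial soil (water depth 0.1–0.5 cm) at 25–30 °C in a greenhouse. An emulsion formulation diluted to the stated g/ha rate was sprayed onto stems and leaves. Effects were scored on a 0–5 scale (herbicidal ratio bands) three weeks after treatment.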
# Cyperus difformis = assay: as above; conditions: Nineteenth Table, application herbicide amount 320 g/ha
# Summary of the method: as §1
# Leptochloa chinensis = assay: as above; conditions: Nineteenth Table, application herbicide amount 320 g/ha
# Summary of the method: as §1
# [2] = tested on: Echinochloa crus-galli var. crus-galli; assay: Test Example 4: herbicidal effect by application to foliage (diluvial soil, plastic box)
# Summary of the method: (§2)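 Scores run from 0 (herbicidal ratio ≤5%) to 5 (≥90%, almost fully withered) and were assessed three weeks after foliar spraying. Seedlings had been raised for 14 days at 25-30° C in sterilized diluvial soil before treatment, with the emulsion diluted in water to the stated g/ha dose.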
# Setaria viridis = assay: as above
# Summary of the method: as §2
# Digitaria ciliaris = assay: as above
# Summary of the method: as §2
# Avena fatua = assay: as above
# Summary of the method: as §2
# Galium spurium = assay: as above
# Summary of the method: as §2
# Lolium multiflorum Lam. = assay: as above
# Summary of the method: as §2
# Chenopodium album = assay: as above
# Summary of the method: as §2
# Veronica persica = assay: as above
# Summary of the method: as §2
# Alopecurus myosuroides = assay: as above
# Summary of the method: as §2
# Apera spica-venti. = assay: as above
# Summary of the method: as §2
# Abutilon theophrasti = assay: as above
# Summary of the method: as §2
# [3] = Application herbicide amount 320 g/ha
# [4] = application to foliage, application herbicide amount 320 g/ha
structure (smiles),measurement,setting,value
Cc1nnc(NC(=O)c2ccc(C(F)(F)F)n3c(Nc4ccccc4)nnc23)o1 [1-082],H (herbicidal effect grade),[1]; application to foliage,4 (Herbicidal ratio of 70% or more and less than 90%)
same,E (herbicidal effect grade),Cyperus difformis; application to foliage,4 (Herbicidal ratio of 70% or more and less than 90%)
same,D (herbicidal effect grade),Leptochloa chinensis; application to foliage,4 (Herbicidal ratio of 70% or more and less than 90%)
same,H,[2]; [3],4 (Herbicidal ratio of 70% or more and less than 90%)
same,G,Setaria viridis; [3],3 (Herbicidal ratio of 40% or more and less than 70%)
same,F,Digitaria ciliaris; [3],4 (Herbicidal ratio of 70% or more and less than 90%)
same,I,Avena fatua; [3],0 (Herbicidal ratio of 5% or less (almost no effect))
same,Q,Galium spurium; [3],0 (Herbicidal ratio of 5% or less (almost no effect))
same,K,Lolium multiflorum Lam.; [3],1 (Herbicidal ratio of 5% or more and less than 20%)
same,O,Chenopodium album; [3],5 (Herbicidal ratio of 90% or more (almost completely withered))
same,R,Veronica persica; [3],4 (Herbicidal ratio of 70% or more and less than 90%)
same,J,Alopecurus myosuroides; [3],0 (Herbicidal ratio of 5% or less (almost no effect))
same,L,Apera spica-venti.; [3],1 (Herbicidal ratio of 5% or more and less than 20%)
same,M,Abutilon theophrasti; [3],4 (Herbicidal ratio of 70% or more and less than 90%)
Cc1nnc(NC(=O)c2ccc(C(F)(F)F)n3c(C4CCCC4)nnc23)o1 [1-026],H (Echinochloa crus-galli var. crus-galli) herbicidal ratio grade,[1],5 (Herbicidal ratio of 90% or more (almost completely withered))
same,E (Cyperus difformis) herbicidal ratio grade,Cyperus difformis,4 (Herbicidal ratio of 70% or more and less than 90%)
same,D (Leptochloa chinensis) herbicidal ratio grade,Leptochloa chinensis,4 (Herbicidal ratio of 70% or more and less than 90%)
same,H (Echinochloa crus-galli var. crus-galli) herbicidal effect,[2]; [4],3 (Herbicidal ratio of 40% or more and less than 70%)
same,G (Setaria viridis) herbicidal effect,Setaria viridis; [4],3 (Herbicidal ratio of 40% or more and less than 70%)
same,F (Digitaria ciliaris) herbicidal effect,Digitaria ciliaris; [4],3 (Herbicidal ratio of 40% or more and less than 70%)
same,I (Avena fatua) herbicidal effect,Avena fatua; [4],1 (Herbicidal ratio of 5% or more and less than 20%)
same,Q (Galium spurium) herbicidal effect,Galium spurium; [4],2 (Herbicidal ratio of 20% or more and less than 40%)
same,K (Lolium multiflorum Lam.) herbicidal effect,Lolium multiflorum Lam.; [4],1 (Herbicidal ratio of 5% or more and less than 20%)
same,O (Chenopodium album) herbicidal effect,Chenopodium album; [4],5 (Herbicidal ratio of 90% or more (almost completely withered))
same,R (Veronica persica) herbicidal effect,Veronica persica; [4],5 (Herbicidal ratio of 90% or more (almost completely withered))
same,J (Alopecurus myosuroides) herbicidal effect,Alopecurus myosuroides; [4],1 (Herbicidal ratio of 5% or more and less than 20%)
same,L (Apera spica-venti.) herbicidal effect,Apera spica-venti.; [4],2 (Herbicidal ratio of 20% or more and less than 40%)
same,M (Abutilon theophrasti) herbicidal effect,Abutilon theophrasti; [4],3 (Herbicidal ratio of 40% or more and less than 70%)
